Where a SMILES comes first, the peptide text is derived from it.
Columns and labels:
[1] = tested on: modified hASL^Lys3UUU; experiment: initial validation screen, change in peptide fluorescence on addition of ASL; format: binding, human; conditions: 2-fold excess of modified hASL^Lys3UUU; result in words
Experimental: (§1) An initial fluorescent signal (FS0) of peptide alone ([…]) was obtained. Then, a 2-fold excess of ASL was added to each peptide and the fluorescent signal (FS1) was monitored. The percent change (100*(FS1/FS0)) is graphed for each of the assayed peptides. Dark gray bars represent the percent change in fluorescence in the presence of the modified hASL^Lys3UUU and light gray bars represent the percent change in the presence of the unmodified hASL^Lys3UUU.
(§2) Sequences predicted during the in silico optimizations to have the lowest binding energies and thus, potentially higher affinity for modified hASL^Lys3, were selected for validation with a fluorescence assay (9). Fifteen peptides (Table 3) were chemically synthesized with fluorescein at the N-terminus to allow for very sensitive, low volume detection of peptide-RNA binding interactions. P1 and P6 from phage display selections (9), the initially evolved sequences, P26 and P27, and the best binders from each of the Cases 1, 2 and 3 were synthesized. Variants of these sequences that had one or two amino acid changes were also synthesized (Table 3). During the initial validation assay, changes in the amount of fluorescence were monitored to determine whether the peptide was binding to the modified and/or unmodified hASLLys3UUU and to what relative degree (FIG. 12). In this screening assay, P6 behaved as expected. […] Other peptides behaved similarly.
(§3) Fifteen-amino acid peptides were selected from the sequences predicted in silico and were chemically synthesized, each with fluorescein (Flc) at the N-terminus. This set of peptides included the original P1 and P6 sequences to be used as an internal control. […] Concentrated peptide stocks were stored in 25 μl aliquots at […] for later use. Working concentrations were diluted for each experiment and kept on ice or stored at −20° C.
(§4) Fluorescent assays were conducted in phosphate buffer (10 mM Na2HPO4 and 10 mM KH2PO4, pH 6.8) in low volume 384 well plates. All buffers, peptides, and RNA were pipetted into wells via a liquid handling robot (Janus, PerkinElmer). All plates were read using a plate reader fitted with fluorescein specific filters (PerkinElmer EnVision) which was optimized for each plate and peptide before each experiment. Initial validation screens were conducted by obtaining fluorescent signals for each peptide (0.50 μM) alone (FS0) and in the presence of a 2-fold excess of modified or unmodified hASLLys3UUU (FS1). Percent change in fluorescent signal was calculated (% Change=100*(FS1/FS0)). A decrease (quench) in fluorescent signal in the presence of RNA indicated a binding event between the peptide and ASL. In control wells H2O, phosphate buffer, and ASLs were individually tested for any inherent fluorescent signal. Water and buffer signals served as blank background signals. […] All controls and experimental sets were repeated in triplicate within a single plate and signals are an average of each triplicate. For the subset of peptides which were further studied to obtained binding constants, the fluorescent binding assay was completed as above. The peptide fluorescent signal was monitored throughout an increasing ASL concentration (0-3 μM). The percent quench in signal was plotted against the hASL concentration. Binding constants (Kd) were calculated using the single linear regression function within SigmaPlot. Experiments were performed in triplicate within a single plate and fluorescent signals are an average of each triplicate.

[2] = target: modified hASL^Lys3UUU; experiment: fluorescent binding assay of fluorescein-labeled peptides, binding constants; design: species or system human; conditions: for Kd: Modified hASL^Lys3UUU, N-terminal fluorescein peptide, phosphate buffer pH 6.8, ASL 0-3 μM; for affinity relative to P6: from Kd values, compared with P6
Experimental: as §3, §4

[3] = target: unmodified hASL^Lys3UUU; experiment: as above; design: species or system human; conditions: N-terminal fluorescein peptide, phosphate buffer pH 6.8, ASL 0-3 μM
Experimental: as §3, §4

[4] = tested on: unmodified hASL^Lys3UUU; experiment: initial validation screen, change in peptide fluorescence on addition of ASL; format: binding, human; conditions: 2-fold excess of unmodified hASL^Lys3UUU; result in words
Experimental: as §1, §2, §3, §4

[5] = target: unmodified ASL; conditions: NCp7, unmodified ASL; cited from earlier work
[6] = target: modified hASLLys3; conditions: cited from earlier work
[7] = tested on: singly modified ASL^Lys3, AsL^Lys1, 2 and Escherichia coli ASL^Glu and ASL^Val; conditions: singly modified ASL^Lys3, ASL^Lys1,2, E. coli ASL^Glu and ASL^Val; result in words; cited from earlier work
[8] = tested on: hypermodified ASL^Lys3; conditions: result in words; cited from earlier work

Compound | change in fluorescent signal of peptide (binding, preference for modified ASL) [1] | Kd [2] [nM] | other results
CC(C)C[C@H](NC(=O)[C@H](CO)NC(=O)[C@@H]1CCCN1C(=O)[C@H](Cc1ccccc1)NC(=O)[C@H](CO)NC(=O)[C@@H](NC(=O)[C@H](CO)NC(=O)[C@@H](N)Cc1ccccc1)C(C)C)C(=O)N1CCC[C@H]1C(=O)N[C@@H](C)C(=O)N1CCC[C@H]1C(=O)N1CCC[C@H]1C(=O)N[C@@H](CC(=O)O)C(=O)N[C@@H](CCCNC(=N)N)C(=O)N[C@@H](CO)C(=O)O [Peptide P1, FSVSFPSLPAPPDRS, reference compound] (H-FSVSFPSLPAPPDRS-OH) | increased the fluorescence either with the unmodified or modified hASL^Lys3UUU, but not both | 130 ± 20 | affinity relative to P6 [2]: four fold; Kd [3]: 150 ± 40 nM
CC(C)C[C@H](NC(=O)[C@H](Cc1ccccc1)NC(=O)[C@H](C)NC(=O)[C@H](Cc1c[nH]cn1)NC(=O)[C@H](Cc1c[nH]cn1)NC(=O)[C@@H](NC(=O)[C@@H](NC(=O)[C@@H](N)CCCNC(=N)N)C(C)C)[C@@H](C)O)C(=O)NCC(=O)N[C@@H](C)C(=O)N[C@@H](Cc1c[nH]cn1)C(=O)N[C@@H](CCCNC(=N)N)C(=O)N[C@H](C(=O)N[C@H](C(=O)NCC(=O)O)C(C)C)[C@@H](C)O [Peptide P6, RVTHHAFLGAHRTVG, reference compound] (H-RVTHHAFLGAHRTVG-OH) | quenched more than when bound by the unmodified hASL^Lys3UUU | 500 ± 100 | –
CSCC[C@H](NC(=O)[C@H](CCC(N)=O)NC(=O)[C@H](Cc1c[nH]c2ccccc12)NC(=O)[C@@H](N)CCCNC(=N)N)C(=O)N[C@H](C(=O)N[C@@H](C)C(=O)N[C@@H](Cc1ccccc1)C(=O)N[C@@H](C)C(=O)N[C@@H](Cc1c[nH]cn1)C(=O)NCC(=O)N[C@@H](Cc1c[nH]c2ccccc12)C(=O)N[C@@H](CCCNC(=N)N)C(=O)N[C@@H](Cc1c[nH]cn1)C(=O)N[C@@H](CO)C(=O)NCC(=O)O)[C@@H](C)O [Peptide P27, RWQMTAFAHGWRHSG] (H-RWQMTAFAHGWRHSG-OH) | quenched to a greater degree in binding the modified hASL^Lys3UUU than was the fluorescence of P6 | 50 ± 20 | change in fluorescent signal of peptide [4]: little or no change in fluorescence; affinity relative to P6 [2]: 10 fold
CSCC[C@H](NC(=O)[C@H](CCCNC(=N)N)NC(=O)[C@H](Cc1c[nH]c2ccccc12)NC(=O)[C@H](CC(C)C)NC(=O)[C@@H]1CCCN1C(=O)[C@H](Cc1c[nH]cn1)NC(=O)[C@H](Cc1ccccc1)NC(=O)[C@H](CO)NC(=O)[C@H](Cc1c[nH]cn1)NC(=O)[C@H](Cc1c[nH]cn1)NC(=O)[C@H](CCC(N)=O)NC(=O)[C@H](Cc1c[nH]c2ccccc12)NC(=O)[C@@H](N)CCCNC(=N)N)C(=O)N[C@@H](CO)C(=O)NCC(=O)O [Peptide P31, RWQHHSFHPLWRMSG] (H-RWQHHSFHPLWRMSG-OH) | quenched to a greater degree in binding the modified hASL^Lys3UUU than was the fluorescence of P6 | 580 ± 240 | change in fluorescent signal of peptide [4]: little or no change in fluorescence; affinity relative to P6 [2]: equivalent to P6
NCp7: HIV-1 nucleocapsid protein 7, binds and destabilizes htRNA^Lys3UUU (MQRGNFRNQRKIVKCFNCGKEGHTARNCRAPRKKGCWKCGKEGHQMKDCTERQAN; Nucleocapsid protein p7; UniProt P04591 378-432, looked up) | – | – | Kd [5]: 2300 ± 620 nM; Kd ([6]; NCp7, modified hASLLys3): 280 ± 30 nM; increase of NCp7 affinity by the modifications ([6]; modified vs unmodified hASLLys3): ~10 fold
RFQHSNWFSGWKVNG [Peptide P34] | increased the fluorescence either with the unmodified or modified hASL^Lys3UUU, but not both | – | –
RGVFSHPHTAVPSHN | – | – | binding [7]: bound poorly; binding affinity [8]: relatively high binding affinity
RHHHASFGPPWLSHG [Peptide P32] | significantly weaker affinities and a lack of specificity | – | –
RHSHAHFGPPWLSHG [Peptide P33] | significantly weaker affinities and a lack of specificity | – | –
RTLHHALFGAHQTVG [Peptide P26] | increased the fluorescence either with the unmodified or modified hASL^Lys3UUU, but not both | – | –
RWNGSQWFCAWRANG [Peptide P36] | increased the fluorescence either with the unmodified or modified hASL^Lys3UUU, but not both | – | –
RWTHCQFWQGFRVNG [Peptide P38] | increased the fluorescence either with the unmodified or modified hASL^Lys3UUU, but not both | – | –

Reference: patent publication US9975922B2, “Peptide inhibitor of HIV reverse transcription” (priority 2013, dated 2018)
